# Patent US8877741B2, “Pyrrolidine derivatives, pharmaceutical compositions and uses thereof” (Boehringer Ingelheim International GmbH, priority 2013, dated 2014)
# Biological target: human ACC2 (Homo sapiens (Human), UniProt O00763)
# Test: ACC2 assay, spectrophotometric 384 well assay (NADH-linked kinetic method)
# Type: biochemical
# Settings: human ACC2 construct lacking the 128 N-terminal amino acids; coupled lactate dehydrogenase/pyruvate kinase reaction, 340 nm, 25° C.
# Outline: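 ADP formation was monitored as NADH consumption at 340 nm for 15 min at 25 °C, using baculovirus-expressed human ACC2 missing its first 128 amino acids, with 500 μM ATP and 2000 μM each of acetyl-CoA and NADH (final). IC50 was fitted by non-linear regression on low-control-subtracted slopes.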
# Sequence of human ACC2 (O00763 129-2458): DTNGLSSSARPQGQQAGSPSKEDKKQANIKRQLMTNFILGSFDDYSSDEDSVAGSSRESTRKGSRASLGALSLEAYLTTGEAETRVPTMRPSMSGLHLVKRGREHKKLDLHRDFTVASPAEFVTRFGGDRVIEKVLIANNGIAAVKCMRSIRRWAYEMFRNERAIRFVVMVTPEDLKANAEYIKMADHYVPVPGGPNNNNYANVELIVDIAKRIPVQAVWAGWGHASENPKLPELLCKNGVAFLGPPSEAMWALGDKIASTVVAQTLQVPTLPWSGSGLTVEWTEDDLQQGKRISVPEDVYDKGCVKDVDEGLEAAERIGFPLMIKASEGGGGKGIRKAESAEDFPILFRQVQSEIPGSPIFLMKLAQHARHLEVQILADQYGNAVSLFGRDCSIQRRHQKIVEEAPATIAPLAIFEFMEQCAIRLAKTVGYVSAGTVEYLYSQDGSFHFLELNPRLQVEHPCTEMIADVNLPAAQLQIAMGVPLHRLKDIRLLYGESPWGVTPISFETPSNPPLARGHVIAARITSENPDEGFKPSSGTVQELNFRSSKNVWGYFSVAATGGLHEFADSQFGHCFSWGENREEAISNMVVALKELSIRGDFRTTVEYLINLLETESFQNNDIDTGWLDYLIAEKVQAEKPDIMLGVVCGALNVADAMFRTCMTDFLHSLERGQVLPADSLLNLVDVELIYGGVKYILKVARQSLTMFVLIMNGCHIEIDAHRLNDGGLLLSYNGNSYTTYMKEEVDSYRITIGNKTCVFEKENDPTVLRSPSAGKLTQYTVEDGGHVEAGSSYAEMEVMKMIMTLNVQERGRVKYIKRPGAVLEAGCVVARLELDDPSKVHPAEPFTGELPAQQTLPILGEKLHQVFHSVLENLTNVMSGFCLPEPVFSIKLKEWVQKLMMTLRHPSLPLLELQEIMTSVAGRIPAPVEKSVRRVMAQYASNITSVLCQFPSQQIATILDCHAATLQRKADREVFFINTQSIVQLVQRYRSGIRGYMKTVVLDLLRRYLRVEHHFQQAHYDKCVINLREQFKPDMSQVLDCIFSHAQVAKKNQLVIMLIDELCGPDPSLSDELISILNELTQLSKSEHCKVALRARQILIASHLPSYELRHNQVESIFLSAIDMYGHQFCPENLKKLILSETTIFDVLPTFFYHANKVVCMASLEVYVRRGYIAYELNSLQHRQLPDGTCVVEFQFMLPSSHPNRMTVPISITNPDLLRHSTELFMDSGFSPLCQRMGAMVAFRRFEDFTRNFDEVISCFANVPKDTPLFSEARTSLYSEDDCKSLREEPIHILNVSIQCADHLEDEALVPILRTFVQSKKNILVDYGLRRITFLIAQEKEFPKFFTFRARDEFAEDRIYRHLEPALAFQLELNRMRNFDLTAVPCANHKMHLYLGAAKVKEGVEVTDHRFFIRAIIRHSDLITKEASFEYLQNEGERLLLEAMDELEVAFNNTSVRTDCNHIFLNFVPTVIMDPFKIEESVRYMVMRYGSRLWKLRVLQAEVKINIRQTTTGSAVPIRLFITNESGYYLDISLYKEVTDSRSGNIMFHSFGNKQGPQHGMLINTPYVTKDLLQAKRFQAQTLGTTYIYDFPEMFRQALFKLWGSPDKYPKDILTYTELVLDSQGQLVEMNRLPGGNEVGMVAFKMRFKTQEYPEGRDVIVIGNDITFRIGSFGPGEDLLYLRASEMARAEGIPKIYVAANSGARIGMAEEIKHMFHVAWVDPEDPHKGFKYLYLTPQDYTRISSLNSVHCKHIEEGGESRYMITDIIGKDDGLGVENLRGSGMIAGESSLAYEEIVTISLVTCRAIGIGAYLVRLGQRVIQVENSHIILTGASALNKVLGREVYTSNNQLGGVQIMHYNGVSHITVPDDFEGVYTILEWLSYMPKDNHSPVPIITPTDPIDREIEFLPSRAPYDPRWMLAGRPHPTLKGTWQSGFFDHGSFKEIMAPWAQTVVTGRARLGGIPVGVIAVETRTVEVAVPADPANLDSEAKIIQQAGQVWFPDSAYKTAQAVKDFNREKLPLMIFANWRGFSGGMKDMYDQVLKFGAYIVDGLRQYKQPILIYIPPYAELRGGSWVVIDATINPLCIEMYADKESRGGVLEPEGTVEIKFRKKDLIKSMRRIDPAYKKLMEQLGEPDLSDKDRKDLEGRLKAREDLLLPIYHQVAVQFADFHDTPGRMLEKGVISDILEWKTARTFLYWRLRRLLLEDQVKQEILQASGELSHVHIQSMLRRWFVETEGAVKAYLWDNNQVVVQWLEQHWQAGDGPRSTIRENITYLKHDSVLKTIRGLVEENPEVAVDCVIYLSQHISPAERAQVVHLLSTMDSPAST
row,Compound,IC50
1,Cc1nnsc1C(=O)N[C@@H](C)c1ccc(OC2CCN(c3cccc(C(F)(F)F)n3)C2)cc1 (some centres unmarked) [Example 2.53],314 nM
2,C[C@H](NC(=O)c1ccnc(F)c1)c1ccc(OC2CCN(c3cccc(C(F)(F)F)n3)C2)cc1 (some centres unmarked) [Example 2.54],455 nM
3,C[C@H](NC(=O)CCO)c1ccc(OC2CCN(c3cccc(C(F)(F)F)n3)C2)cc1 (some centres unmarked) [Example 2.55],424 nM
4,C[C@H](NC(=O)C1CC1)c1ccc(OC2CCN(c3ccc(OCC4CC4(F)F)cn3)C2)cc1 (some centres unmarked) [Example 2.56],175 nM
5,C[C@H](NC(=O)c1cnc(N)o1)c1ccc(OC2CCN(c3ccc(OCC4CC4(F)F)cn3)C2)cc1 (some centres unmarked) [Example 2.57],255 nM
6,Cc1oncc1C(=O)N[C@@H](C)c1ccc(OC2CCN(c3ccnc(OC(C)C)c3)C2)cc1 (some centres unmarked) [Example 2.58],69 nM
7,C[C@H](NC(=O)c1cncs1)c1ccc(OC2CCN(c3ccc(OCC4CC4(F)F)cn3)C2)cc1 (some centres unmarked) [Example 2.59],55 nM
8,C[C@H](NC(=O)C(F)F)c1ccc(OC2CCN(c3ccc(OCC4CC4(F)F)cn3)C2)cc1 (some centres unmarked) [Example 2.60],35 nM
9,Cc1cc(C(=O)N[C@@H](C)c2ccc(OC3CCN(c4cccc(C(F)(F)F)n4)C3)cc2)no1 (some centres unmarked) [Example 2.61],35 nM
10,C[C@H](NC(=O)c1ccnc(C#N)c1)c1ccc(OC2CCN(c3cccc(C(F)(F)F)n3)C2)cc1 (some centres unmarked) [Example 2.62],175 nM
11,C[C@H](NC(=O)C(C)(F)F)c1ccc(OC2CCN(c3cccc(C(F)(F)F)n3)C2)cc1 (some centres unmarked) [Example 2.63],204 nM
12,C[C@H](NC(=O)c1cc[nH]n1)c1ccc(OC2CCN(c3cccc(C(F)(F)F)n3)C2)cc1 (some centres unmarked) [Example 2.64],45 nM
13,C[C@H](NC(=O)C1(C#N)CC1)c1ccc(OC2CCN(c3ccnc(OCC4CC4)c3)C2)cc1 (some centres unmarked) [Example 2.65],85 nM
14,CCC(=O)N[C@@H](C)c1ccc(OC2CCN(c3ccnc(OCC4CC4)c3)C2)cc1 (some centres unmarked) [Example 2.66],50 nM
15,C[C@H](NC(=O)c1cnco1)c1ccc(OC2CCN(c3ccnc(OCC4CC4)c3)C2)cc1 (some centres unmarked) [Example 2.67],46 nM
16,C[C@H](NC(=O)[C@@H](C)O)c1ccc(OC2CCN(c3ccnc(OCC4CC4)c3)C2)cc1 (some centres unmarked) [Example 2.68],265 nM
17,C[C@H](NC(=O)c1cnn(C)c1Cl)c1ccc(OC2CCN(c3ccnc(OCC4CC4)c3)C2)cc1 (some centres unmarked) [Example 2.69],281 nM
18,C[C@H](NC(=O)c1ccon1)c1ccc(OC2CCN(c3ccnc(OCC4CC4)c3)C2)cc1 (some centres unmarked) [Example 2.70],99 nM
19,C[C@H](NC(=O)CC#N)c1ccc(OC2CCN(c3ccnc(OCC4CC4)c3)C2)cc1 (some centres unmarked) [Example 2.71],110 nM
20,C[C@H](NC(=O)CO)c1ccc(OC2CCN(c3ccnc(OCC4CC4)c3)C2)cc1 (some centres unmarked) [Example 2.72],130 nM
21,C[C@H](NC(=O)C1(C)CC1)c1ccc(OC2CCN(c3ccnc(OCC4CC4)c3)C2)cc1 (some centres unmarked) [Example 2.73],65 nM
22,C[C@H](NC(=O)c1cnc(N)o1)c1ccc(OC2CCN(c3ccnc(OCC4CC4)c3)C2)cc1 (some centres unmarked) [Example 2.74],359 nM
23,COCC(=O)Nc1nc(C)c(C(=O)N[C@@H](C)c2ccc(OC3CCN(c4ccnc(OCC5CC5)c4)C3)cc2)s1 (some centres unmarked) [Example 2.75],39 nM
24,C[C@H](NC(=O)c1cnn(C)c1)c1ccc(OC2CCN(c3ccnc(OCC4CC4)c3)C2)cc1 (some centres unmarked) [Example 2.77],69 nM

row,Compound,IC50
1,C[C@H](NC(=O)[C@@H](C)O)c1ccc(OC2CCN(c3ccnc(OCC4CC4)c3)C2)cc1 (some centres unmarked) [Example 2.78],799 nM
2,C[C@H](NC(=O)c1cncnc1)c1ccc(OC2CCN(c3ccnc(OCC4CC4)c3)C2)cc1 (some centres unmarked) [Example 2.79],456 nM
3,C[C@H](NC(=O)C(C)(C)F)c1ccc(OC2CCN(c3ccnc(OCC4CC4)c3)C2)cc1 (some centres unmarked) [Example 2.80],122 nM
4,C[C@H](NC(=O)C(F)F)c1ccc(OC2CCN(c3ccnc(OCC4CC4)c3)C2)cc1 (some centres unmarked) [Example 2.81],35 nM
5,C[C@H](NC(=O)c1cnn(C)c1N)c1ccc(OC2CCN(c3ccnc(OCC4CC4)c3)C2)cc1 (some centres unmarked) [Example 2.82],300 nM
6,CC(C#N)C(=O)N[C@@H](C)c1ccc(OC2CCN(c3ccnc(OCC4CC4)c3)C2)cc1 (some centres unmarked) [Example 2.83],210 nM
7,Cc1[nH]ncc1C(=O)N[C@@H](C)c1ccc(OC2CCN(c3ccnc(OCC4CC4)c3)C2)cc1 (some centres unmarked) [Example 2.84],169 nM
8,C[C@H](NC(=O)c1ccno1)c1ccc(OC2CCN(c3ccnc(OCC4CC4)c3)C2)cc1 (some centres unmarked) [Example 2.85],105 nM
9,C[C@H](NC(=O)c1cn[nH]c1)c1ccc(OC2CCN(c3ccnc(OCC4CC4)c3)C2)cc1 (some centres unmarked) [Example 2.86],63 nM
10,Cc1cc(CC(=O)N[C@@H](C)c2ccc(OC3CCN(c4ccnc(OCC5CC5)c4)C3)cc2)on1 (some centres unmarked) [Example 2.87],270 nM
11,C[C@H](NC(=O)c1ccnnc1)c1ccc(OC2CCN(c3ccnc(OCC4CC4)c3)C2)cc1 (some centres unmarked) [Example 2.88],278 nM
12,CC(=O)Nc1nc(C)c(C(=O)N[C@@H](C)c2ccc(OC3CCN(c4ccc(OC[C@H]5CC5(F)F)cn4)C3)cc2)s1 (some centres unmarked) [Example 2.90],9 nM
13,CCC(=O)N[C@@H](C)c1ccc(OC2CCN(c3ccc(OC[C@H]4CC4(F)F)cn3)C2)cc1 (some centres unmarked) [Example 2.91],67 nM
14,C[C@H](NC(=O)c1cnco1)c1ccc(OC2CCN(c3ccc(OC[C@H]4CC4(F)F)cn3)C2)cc1 (some centres unmarked) [Example 2.92],110 nM
15,C[C@H](NC(=O)c1cn[nH]c1)c1ccc(OC2CCN(c3ccc(OC[C@H]4CC4(F)F)cn3)C2)cc1 (some centres unmarked) [Example 2.93],40 nM
16,C[C@H](NC(=O)C1CC1)c1ccc(OC2CCN(c3ccc(OC[C@H]4CC4(F)F)cn3)C2)cc1 (some centres unmarked) [Example 2.94],84 nM
17,Cc1nocc1C(=O)N[C@@H](C)c1ccc(OC2CCN(c3ccnc(OCC(F)F)c3)C2)cc1 (some centres unmarked) [Example 2.95],49 nM
18,COCC(=O)Nc1nc(C)c(C(=O)N[C@@H](C)c2ccc(OC3CCN(c4ccnc(OCC(F)F)c4)C3)cc2)s1 (some centres unmarked) [Example 2.96],55 nM
19,C[C@H](NC(=O)C(F)F)c1ccc(OC2CCN(c3ccnc(OCC(F)F)c3)C2)cc1 (some centres unmarked) [Example 2.97],140 nM
20,Cc1[nH]ncc1C(=O)N[C@@H](C)c1ccc(OC2CCN(c3ccnc(OCC(F)F)c3)C2)cc1 (some centres unmarked) [Example 2.98],282 nM
21,C[C@H](NC(=O)c1cn[nH]c1)c1ccc(OC2CCN(c3ccnc(OCC(F)F)c3)C2)cc1 (some centres unmarked) [Example 2.99],85 nM
22,Cc1cc(CC(=O)N[C@@H](C)c2ccc(OC3CCN(c4ccnc(OCC(F)F)c4)C3)cc2)on1 (some centres unmarked) [Example 2.100],624 nM
23,C[C@H](NC(=O)c1cncs1)c1ccc(OC2CCN(c3ccnc(OCC(F)F)c3)C2)cc1 (some centres unmarked) [Example 2.101],76 nM
24,C[C@H](NC(=O)c1cnn(C)c1)c1ccc(OC2CCN(c3ccnc(OCC(F)F)c3)C2)cc1 (some centres unmarked) [Example 2.102],136 nM

row,Compound,IC50
1,C[C@H](NC(=O)c1cnc(N)o1)c1ccc(OC2CCN(c3ccnc(OCC(F)F)c3)C2)cc1 (some centres unmarked) [Example 2.103],523 nM
2,CC(C#N)C(=O)N[C@@H](C)c1ccc(OC2CCN(c3ccnc(OCC(F)F)c3)C2)cc1 (some centres unmarked) [Example 2.104],658 nM
3,C[C@H](NC(=O)[C@@H](C)O)c1ccc(OC2CCN(c3ccnc(OCC(F)F)c3)C2)cc1 (some centres unmarked) [Example 2.105],784 nM
4,CCC(=O)N[C@@H](C)c1ccc(OC2CCN(c3ccnc(OCC(F)F)c3)C2)cc1 (some centres unmarked) [Example 2.106],88 nM
5,C[C@H](NC(=O)c1ccno1)c1ccc(OC2CCN(c3ccnc(OCC(F)F)c3)C2)cc1 (some centres unmarked) [Example 2.107],389 nM
6,C[C@H](NC(=O)c1ccnnc1)c1ccc(OC2CCN(c3ccnc(OCC(F)F)c3)C2)cc1 (some centres unmarked) [Example 2.108],714 nM
7,C[C@H](NC(=O)C(C)(C)F)c1ccc(OC2CCN(c3ccnc(OCC(F)F)c3)C2)cc1 (some centres unmarked) [Example 2.109],453 nM
8,C[C@H](NC(=O)c1ccon1)c1ccc(OC2CCN(c3ccnc(OCC(F)F)c3)C2)cc1 (some centres unmarked) [Example 2.110],263 nM
9,C[C@H](NC(=O)c1cnco1)c1ccc(OC2CCN(c3ccnc(OCC(F)F)c3)C2)cc1 (some centres unmarked) [Example 2.111],107 nM
10,C[C@H](NC(=O)c1cnn(C)c1N)c1ccc(OC2CCN(c3ccnc(OCC(F)F)c3)C2)cc1 (some centres unmarked) [Example 2.112],298 nM
11,C[C@H](NC(=O)C(F)(F)F)c1ccc(OC2CCN(c3ccnc(OCC(F)F)c3)C2)cc1 (some centres unmarked) [Example 2.113],77 nM
12,C[C@H](NC(=O)c1cnn(C)c1Cl)c1ccc(OC2CCN(c3ccnc(OCC(F)F)c3)C2)cc1 (some centres unmarked) [Example 2.114],611 nM
13,C[C@H](NC(=O)CO)c1ccc(OC2CCN(c3ccnc(OCC(F)F)c3)C2)cc1 (some centres unmarked) [Example 2.115],869 nM
14,C[C@H](NC(=O)CC#N)c1ccc(OC2CCN(c3ccnc(OCC(F)F)c3)C2)cc1 (some centres unmarked) [Example 2.116],362 nM
15,Cc1[nH]ncc1C(=O)N[C@@H](C)c1ccc(OC2CCN(c3ccc(OCC4CC4(F)F)cn3)C2)cc1 (some centres unmarked) [Example 2.118],169 nM
16,C[C@H](NC(=O)CC#N)c1ccc(OC2CCN(c3ccc(OCC4CC4(F)F)cn3)C2)cc1 (some centres unmarked) [Example 2.119],235 nM
17,COCC(=O)Nc1nc(C)c(C(=O)N[C@@H](C)c2ccc(OC3CCN(c4ccc(OCC5CC5(F)F)cn4)C3)cc2)s1 (some centres unmarked) [Example 2.120],37 nM
18,C[C@H](NC(=O)c1cnco1)c1ccc(OC2CCN(c3ccc(OCC4CC4(F)F)cn3)C2)cc1 (some centres unmarked) [Example 2.121],43 nM
19,C[C@H](NC(=O)c1cnco1)c1ccc(OC2CCN(c3cccc(C(F)(F)F)n3)C2)cc1 (some centres unmarked) [Example 2.122],85 nM
20,CC(=O)Nc1nc(C)c(C(=O)N[C@@H](C)c2ccc(OC3CCN(c4ccnc(N5CCC(F)(F)C5)c4F)C3)cc2)s1 (some centres unmarked) [Example 2.123],58 nM
21,C[C@H](NC(=O)C1(C)CC1)c1ccc(OC2CCN(c3ccnc(N4CCC(F)(F)C4)c3F)C2)cc1 (some centres unmarked) [Example 2.124],72 nM
22,C[C@H](NC(=O)c1cncs1)c1ccc(OC2CCN(c3ccnc(N4CCC(F)(F)C4)c3F)C2)cc1 (some centres unmarked) [Example 2.125],60 nM
23,C[C@H](NC(=O)c1cnco1)c1ccc(OC2CCN(c3ccnc(N4CCC(F)(F)C4)c3F)C2)cc1 (some centres unmarked) [Example 2.126],45 nM
